Data: PubChem BioAssay (NCI)
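Step 1: Grow cells in 96-well plates. Step 2: Expose to compound for 48 hours at 5 concentrations. Step 3: Interpolate endpoints linearly; if unreached, use highest concentration. TGI is the concentration that stops growth completely.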

Columns and labels:
Experiment in all cases: NCI tumour cell line growth inhibition, 48 h
786-0 renal = system: 786-0 renal
A498 renal = system: A498 renal
A549 NSCLC = system: A549 NSCLC
ACHN renal = system: ACHN renal
BT-549 breast = system: BT-549 breast
CAKI-1 renal = system: CAKI-1 renal
CCRF-CEM leukemia = system: CCRF-CEM leukemia
COLO 205 colon = system: COLO 205 colon
DU-145 prostate = system: DU-145 prostate
EKVX NSCLC = system: EKVX NSCLC
HCC-2998 colon = system: HCC-2998 colon
HCT-116 colon = system: HCT-116 colon
HCT-15 colon = system: HCT-15 colon
HL-60(TB) leukemia = system: HL-60(TB) leukemia
HOP-62 NSCLC = system: HOP-62 NSCLC
HS 578T breast = system: HS 578T breast
HT29 colon = system: HT29 colon
IGROV1 ovarian = system: IGROV1 ovarian
K-562 leukemia = system: K-562 leukemia
KM12 colon = system: KM12 colon
LOX IMVI melanoma = system: LOX IMVI melanoma
M14 melanoma = system: M14 melanoma
MALME-3M melanoma = system: MALME-3M melanoma
MCF7 breast = system: MCF7 breast
MDA-MB-231 breast = system: MDA-MB-231 breast
MDA-MB-435 = system: MDA-MB-435
MDA-N = system: MDA-N
MOLT-4 leukemia = system: MOLT-4 leukemia
NCI-H226 lung = system: NCI-H226 lung
NCI-H23 lung = system: NCI-H23 lung
NCI-H460 lung = system: NCI-H460 lung
NCI-H522 lung = system: NCI-H522 lung
NCI/ADR-RES ovarian = system: NCI/ADR-RES ovarian
OVCAR-3 ovarian = system: OVCAR-3 ovarian
OVCAR-4 ovarian = system: OVCAR-4 ovarian
OVCAR-5 ovarian = system: OVCAR-5 ovarian
OVCAR-8 ovarian = system: OVCAR-8 ovarian
PC-3 prostate = system: PC-3 prostate
RPMI-8226 leukemia = system: RPMI-8226 leukemia
RXF 393 renal = system: RXF 393 renal
SF-268 CNS = system: SF-268 CNS
SF-295 CNS = system: SF-295 CNS
SF-539 CNS = system: SF-539 CNS
SK-MEL-2 melanoma = system: SK-MEL-2 melanoma
SK-MEL-28 melanoma = system: SK-MEL-28 melanoma
SK-MEL-5 melanoma = system: SK-MEL-5 melanoma
SK-OV-3 ovarian = system: SK-OV-3 ovarian
SN12C renal = system: SN12C renal
SNB-19 CNS = system: SNB-19 CNS
SR leukemia = system: SR leukemia
SW-620 colon = system: SW-620 colon
T-47D breast = system: T-47D breast
TK-10 renal = system: TK-10 renal
U251 CNS = system: U251 CNS
UACC-257 melanoma = system: UACC-257 melanoma
UACC-62 melanoma = system: UACC-62 melanoma

Work on `Clc1ccc(Cl)c(NNc2cc(Cl)ccc2Cl)c1` yielded a TGI (786-0 renal) greater than 10 µM, a TGI (A498 renal) greater than 10 µM and a TGI (A549 NSCLC) greater than 10 µM. It also gave a TGI (ACHN renal) of 7.43 µM, a TGI (BT-549 breast) greater than 10 µM and a TGI (CAKI-1 renal) greater than 10 µM. For the same compound, the TGI (CCRF-CEM leukemia) was greater than 10 µM, the TGI (COLO 205 colon) was greater than 10 µM and the TGI (DU-145 prostate) was greater than 10 µM. For the same compound, the TGI (EKVX NSCLC) was greater than 10 µM, the TGI (HCC-2998 colon) was greater than 10 µM and the TGI (HCT-116 colon) was greater than 10 µM. For the same compound, the TGI (HCT-15 colon) was greater than 10 µM, the TGI (HL-60(TB) leukemia) was greater than 10 µM and the TGI (HOP-62 NSCLC) was greater than 10 µM. It also gave a TGI (HS 578T breast) greater than 10 µM, a TGI (HT29 colon) greater than 10 µM and a TGI (IGROV1 ovarian) greater than 10 µM. The TGI (K-562 leukemia) was greater than 10 µM, the TGI (KM12 colon) was greater than 10 µM and the TGI (LOX IMVI melanoma) was greater than 10 µM. It also gave a TGI (M14 melanoma) greater than 10 µM, a TGI (MALME-3M melanoma) of 9.7 µM and a TGI (MCF7 breast) greater than 10 µM. For the same compound, the TGI (MDA-MB-231 breast) was greater than 10 µM, the TGI (MDA-MB-435) was greater than 10 µM and the TGI (MDA-N) was greater than 10 µM. For the same compound, the TGI (MOLT-4 leukemia) was greater than 10 µM, the TGI (NCI-H226 lung) was greater than 10 µM and the TGI (NCI-H23 lung) was 7.18 µM. The TGI (NCI-H460 lung) was greater than 10 µM, the TGI (NCI-H522 lung) was greater than 10 µM and the TGI (NCI/ADR-RES ovarian) was 9 µM. It also gave a TGI (OVCAR-3 ovarian) of 7.81 µM, a TGI (OVCAR-4 ovarian) greater than 10 µM and a TGI (OVCAR-5 ovarian) greater than 10 µM. The TGI (OVCAR-8 ovarian) was greater than 10 µM, the TGI (PC-3 prostate) was greater than 10 µM and the TGI (RPMI-8226 leukemia) was greater than 10 µM. It also gave a TGI (RXF 393 renal) greater than 10 µM, a TGI (SF-268 CNS) greater than 10 µM and a TGI (SF-295 CNS) greater than 10 µM. The TGI (SF-539 CNS) was greater than 10 µM, the TGI (SK-MEL-2 melanoma) was 8.6 µM and the TGI (SK-MEL-28 melanoma) was greater than 10 µM. For the same compound, the TGI (SK-MEL-5 melanoma) was 6.35 µM, the TGI (SK-OV-3 ovarian) was greater than 10 µM and the TGI (SN12C renal) was greater than 10 µM. The TGI (SNB-19 CNS) was greater than 10 µM, the TGI (SR leukemia) was greater than 10 µM and the TGI (SW-620 colon) was greater than 10 µM. It also gave a TGI (T-47D breast) greater than 10 µM, a TGI (TK-10 renal) greater than 10 µM and a TGI (U251 CNS) greater than 10 µM. For the same compound, the TGI (UACC-257 melanoma) was greater than 10 µM and the TGI (UACC-62 melanoma) was greater than 10 µM.
